Results from patent US5416090A, “Method of treating inflammation” (priority 1992, dated 1995).
Like-named read-outs stand apart in the source and are kept apart here.

How the values were obtained:
[1] = system: lipoidal amine induced arthritis; test: Lipoidal amine induced polyarthritis (hind paw volume and weight); assay type: in vivo, rat (Lewis); conditions: for minimal effective dose: Rattus norvegicus
Procedure: Lipoidal amine induced polyarthritis is an animal arthritis model originally described by Chang, Y., et al. in Arthritis and Rheumatism 23:62-71 (1980). The lipoidal amine induced polyarthritis results from injection of N,N-dioctadecyl-N^1,N-bis(2-hydroxyethyl) propanediamine (7.5 mg/kg Lewis rat (220-225 g)), which is suspended in oil, intradermally at the base of the tail.

[2] = system: delayed type hypersensitivity (DTH) in adrenalectomized mice; test: DTH response in adrenalectomized (ADX) mice; assay type: in vivo, mouse (Balb/c); conditions: FIG. 10B
Excerpt: CMC= carboxymethylcellulose vehicle control; NEG=negative control for DTH; POS=positive control for DTH.
(§1) Dopamine agonists are known to elevate circulating glucocorticoid levels, via activation of the hypothalamo-pituitary-adrenal axis. […] Since glucocorticoids are potential endogenous anti-inflammatory substances, this action is one potential mechanism for the anti-inflammatory effect of the ergolines. However, in subsequent inflammation studies, the anti-inflammatory effects of D-1-isopropyl-6-n-propyl-8β-methylthiomethyl ergoline were retained in mice lacking an adrenal gland and therefore devoid of the increase in circulating corticosterone. (FIG. 10B)
Male Balb/c mice (Charles River) weighing 20 to 25 g were used in all DTH studies. When adrenalectomized studies were carried out, sham surgery and adrenalectomized mice were obtained from the vendor. Animals were maintained on a 12:12 hour light:dark cycle. […]
A DTH response was assessed by measuring the degree of rear foot pad swelling induced by picryl chloride. […] On day 3, mice were anesthetized with methoxyflurane, and the baseline rear foot pad thickness was measured with a micrometer (Mitutoyo) in μ, and was recorded in duplicate. […] Twenty-four hours later, the mice were sacrificed by CO2 asphyxiation and each rear foot pad was again measured in duplicate, and any evidence of foot pad swelling was calculated. […]

[3] = system: 5-HT induced paw swelling; test: Serotonin (5-HT) induced acute paw inflammation; assay type: in vivo, rat (Lewis)
Procedure: In one such model, the acute paw inflammation model, rats were treated with test compounds one hour prior to plantar injection of a 50 μl volume of a phlogistic. Animals were sacrificed and paw weights were determined at a prescribed time interval following the plantar injections. When 1% carrageenan was used as the phlogistic, the time interval between injection and sacrifice was 3 hours. When serotonin (5-hydroxytryptamine (5-HT)) was used, as the phlogistic agent the time interval was one hour. When substance P was used, the time interval was 30 minutes. The acute paw inflammation model is described in more detail in Example 3.
Male Lewis rats (Charles River or Harlan Sprague Dawley) weighing 180 to 250 g were used in all acute inflammatory studies. Animals were maintained on a 12:12 hour light:dark cycle and were allowed ad lib access for food (Purina lab chow) and water. Experimental groups consisted of 5 or 6 rats.
Acute paw swelling was induced by the intraplantar injection of phlogistic agents into the left hind paw, with the uninjected right hind paw serving as the comparative control. One hour after dosing with test compound, 50 μl of serotonin (Sigma; 0.005 to 0.2 mg/ml in normal saline) or substance P (Sigma; 0.01 or 0.05 mg/ml in 10% thiorphan in normal saline) or carrageenan (Marine Colloidal or Sigma Type IV; 1% in normal saline) were injected under the skin of the left hind paw, while the animal was restrained in a plastic cone. Negative controls were given 50 μl intradermal injections of normal saline (serotonin or carrageenan assays) or 10% thiorphan (substance P assays) into the left hind paw. One hour following injection of serotonin, or 30 minutes following injection of substance P, or 180 minutes following injection of carrageenan, the animals were sacrificed by CO2 asphyxiation. The right and left hind paws were cut just proximal to the tibiotarsal joint and weighed. The difference in weight between an individual animal's left and right paws were used as an indicator of tissue swelling.
As indicated above, test compounds are administered as a one hour pretreatment. In one series of experiments, 24 hour and 48 hour drug pretreatment periods were used. Test compounds were dosed intraperitoneally as a suspension in 1% carboxymethylcellulose.

corticosterone = test: Serum/plasma corticosterone levels in mice; assay type: in vivo, mouse (Balb/C); conditions: FIG. 10 Panel A; 1 and 3 hr. following injection
Excerpt: as §1
(§2) Both Balb/C mice (male, approximately 20 g, Charles Rivers) and Lewis rats (male, approximately 200 g, Charles River or Harlan Sprague Dawley) were used in neuroendocrine studies. Animals were maintained on a 12:12 hour light:dark cycle and were allowed ad lib access for food (Purina lab chow) and water. Experimental groups consisted of 6 to 8 animals.
After dosing with test compounds, animals were sacrificed by decapitation at 1, 3, 8 or 24 hour intervals. Trunk blood was collected, allowed to clot and serum obtained after centrifugation (3000 rpm for 15 min.). Serum was aliquoted and stored at -70° C. for subsequent radioimmunoassays. Serum prolactin was determined by radioimmunoassay. Serum corticosterone levels were determined with a kit designed for such determinations and obtained from ICN.

serum prolactin = test: Serum prolactin levels in mice, time course; assay type: in vivo, mouse (Balb/C)
Procedure: A further mechanistic study wherein rat serum prolactin levels were quantitated 1 hour post-treatment with varying doses of D-1-isopropyl-6-n-propyl-8β-methylthiomethyl ergoline is summarized in FIG. 11. […] A time course/dose response study of D-1-isopropyl-6-n-propyl-8β-methylthio-methyl ergoline effects on murine serum prolactin levels is presented in FIG. 12. […] There is however a disparity between the suppression of prolactin and anti-inflammatory activities of the ergolines with regard to the dose response profiles. Serum prolactin levels are much more sensitive to D-1-isopropyl-6-n-propyl-8β-methylthiomethyl ergoline (maximal suppression ~≤0.1 mg/kg) than are the anti-inflammatory effects 3-10 mg/kg, See FIG. 5).
as §2
After dosing with test compounds, animals were sacrificed by decapitation at 1, 3, 8 or 24 hour intervals. […] Serum prolactin was determined by radioimmunoassay. Serum corticosterone levels were determined with a kit designed for such determinations and obtained from ICN.

Compound: CCCN1C[C@H](CSC)C[C@@H]2c3cccc4c3c(cn4C(C)C)C[C@H]21 [Compound 1, D-1-isopropyl-6-n-propyl-8β-methylthiomethyl ergoline]
- effect on increase in hind paw volume and weight ([1]; FIG. 1): Inhibitory effect
- minimal effective dose ([1]; read-out: dosage giving statistically significant decrease in paw volume, FIG. 1 Panel A): ≥ 0.7 mg/kg
- minimal effective dose ([1]; read-out: dosage giving statistically significant decrease in paw weight, FIG. 1 Panel B): ≥ 0.7 mg/kg
- anti-inflammatory effect in mice lacking an adrenal gland ([2]; listed as D-1-isopropyl-6-n-propyl-8β-methylthiomethyl ergoline): retained
- anti-inflammatory effect in mice lacking an adrenal gland ([2]; listed as compound 1): inhibitory effect
- reduction in paw swelling ([3]; 3 mg/kg dosed 24 hours prior to phlogistic challenge): significant reduction in paw swelling
- reduction in paw swelling ([3]; 3 mg/kg dosed 48 hours prior to phlogistic challenge): significant reduction in paw swelling
- effect on 5-HT induced paw swelling ([3]; FIG. 2): Inhibitory effect
- duration of anti-inflammatory effect ([3]; FIG. 3): longlasting
- inhibition of serotonin induced paw swelling ([3]; FIG. 3, serotonin 0.2 mg/kg, 1, 24 and 48 hour following a single injection): Inhibition
- minimal effective dose ([3]; Rattus norvegicus, ip, read-out: lowest stated dosage with a significant reduction in paw swelling): 0.1 mg/kg
- effect on plasma corticosterone (corticosterone): increase plasma cortiosterone
- duration of effect on serum prolactin (serum prolactin; FIG. 12, single injection): particularly long lasting effects
- ED (maximal) (serum prolactin; Mus musculus, compared with anti-inflammatory doses, read-out: dose for maximal suppression of serum prolactin): ≤ 0.1 mg/kg
